We go through six compounds from patent US20040106663A1, “Inhibitors of fungal invasion” (priority 2002, published 2004).

Where only a bound is given, the exact number is not on record here.

Data set [1] relates to logarithmic phase C. albicans (MC295) containing HWP1-lacZ. The data set is described as follows: microbe, parasite or virus in culture. The settings on record: Candida albicans, read-out: C. albicans LOG IC50, logarithmic phase growth invasion assay (converted). The class given is cell-based.
The subject of data set [2] is stationary phase C. albicans (MC295) containing HWP1-lacZ. Put plainly: microbe, parasite or virus in culture. The settings on record: Candida albicans, read-out: C. albicans STAT IC50, stationary phase growth invasion assay. It counts as cell-based, Candida albicans.
For the next data set, the system named is C. albicans (MC303). Put plainly: C. albicans morphology assay (hyphae scored 1-5). The settings on record: invasion morphology phenotype, test compound at 10 μM, scale 1-5.
Data set [3] relates to HepG2 human hepatoma cells. The settings on record: 4 h. Here is the method:
Mammalian Cell Toxicity Assay
To investigate the toxicity of Compound I for mammalian cells, human hepatoma cell line HepG2 were exposed to Compound I and the (LD50) was determined. Briefly, HepG2 human hepatoma cells (American Type Culture Collection, Bethesda Md.) were plated at 1×10^5 cells/well in tissue culture treated 96 well plates and incubated at 5% CO2, 37° C. for 18 h prior to initiation of the assay. The compound stocks at 100 mM in DMSO were added to DM (defined media, media without serum with added insulin, selenium and transferrin) at an initial concentration of 1000 μM and serially diluted 1 to 3 in DM in a 96 well plate. For 20 μL of a test solution, 3.5 μL sample is added to 346.5 μL media for an initial concentration of 1000 μM. These dilutions are added to the cells at final sample concentrations between 0.5 and 1000 μM (<1% DMSO). Controls included: media only (negative control) and 0.1% Triton-X (positive control). Control drugs (tamoxifen and 2-thiouracil) were also used to verify each assay. The samples were incubated at 37° C. in humidified 5% CO2 atmosphere for 4 h.
The plate was read directly on the Tecan Spectrafluor Plus reader in the fluorescent mode at excitation 530 nm and emission 595 nm. The blank was subtracted from the total fluorescence to give the net fluorescence for that well. This total was compared to the control in the absence of the compound. An LD50 (concentration at 50% of lethal dose) is calculated as the concentration that leads to a response of 50% compared to the control cells. Thus, cytotoxicity is measured as percent of inhibition of cell viability as determined by the Alamar Blue assay.

For data set [4], the system named is C. albicans. Put plainly: C. albicans overnight growth inhibition. Also on record: concentration or dose not given beside the values. The class given is cell-based, Candida albicans.
The subject of data set [5] is HepG2 human hepatoma cells. As to conditions: cited from earlier work.
For data set [6], the system named is C. albicans. The data set is described as follows: Mouse model of fungal invasion, kidney histology score (Compound III in diet). The settings on record: mice, powdered diet supplemented from t=−24 h to t=48 h, FIG. 2. It counts as in vivo. Here is the method: A mouse model of fungal invasion was used to examine the in vivo efficacy of orally administered Compound III in reducing invasion by C. albicans. Briefly, one day prior to infection (t=−24 h) mice were switched to a powdered diet supplemented Compound III (treatment mice) or no supplement (control mice). This diet was continued until the mice were sacrificed at t=48 h. The kidneys of the mice were then examined for histologic signs of fungal invasion. In the scoring system used, a score of 5 indicates the presence of many, large fungus-dominated lesions, a score of 3 indicates the presence of many inflammatory lesion and fungus-dominated lesion of mixed size, and a score of 1 indicates few, mainly inflammatory lesions.

For data set [7], the system named is C. albicans. Put plainly: Mouse model of fungal invasion, kidney lesion count (Compound II, IP and oral). The class given is in vivo. The settings on record: mice, 1 mg IP and oral repeated, 2×10^6 C. albicans, sacrifice about t=19 h, FIG. 1. On the procedure: A mouse model of fungal invasion was used to examine the in vivo efficacy of Compound II in reducing invasion by C. albicans.
Briefly, 30 min prior to infection (t=−30 min) 1 mg of Compound II in buffer (10 treatment mice) or buffer only (10 control mice) was administered IP. At t=0 all mice were inoculated with 2×10^6 C. albicans. At t=6 h and t=14 h the IP treatment with Compound II or buffer was repeated. In addition, at t=2, t=4 h, t=10 h, and t=18 h 1 mg of Compound II or buffer only was administered orally. The mice were sacrificed at about t=19 h and the kidneys of the mice were examined for histologic signs of fungal invasion by counting the number of lesions.

Description for C. albicans (MC303): In this assay, described in greater detail below, the morphology of cells was assessed and scored on a 1-5 scale. A score of 1 was assigned to non-hyphal cells, “yeast-like” cells and budding cells, and a score of 5 was assigned to cells having many, relatively long (wild-type) hyphae.
A frozen stock culture was prepared by streaking C. albicans (MC303: ura3 Δ:: imm434/ura3Δ:: imm434 arg4::hisG/arg4::hisG ade2:: URA3:.pTEF1-lacZ/ADE2 hisl::hisG/HIS1 gal1::ARG4/GAL1) cells on a YPD agar plate and grown at 30° C. for 14-18 h. An isolated colony was added to 5 mL of YPD broth and grown on a roller drum (60 rpm) for 14-18 h at 30° C. Next, 600 μL of culture were aliquotted into 1 mL of 25% glycerol, and the tubes are stored at −80° C.
Frozen MC303 C. albicans cell stock was struck for isolation of a single colony using a sterile loop on a YPD agar plate and grown at 30° C. for 14-18 h. A single colony was inoculated into 5 mL of YPD in a test tube and grown on a roller drum (60 rpm) for 2 days at 30° C. to late stationary phase (OD600˜30). For the assay, this stock was diluted to 2.5×10^5 cells/mL to make a 10× stock. Next, 10 μL of this cell stock was added to 80 μL of Inducing Media and 10 μL of 10× compound stock or DMSO in a Coming, tissue-culture treated, flat-bottom, microtiter plate. The plate was incubated at 37° C. for 24 h. Next, 10 μL of formaldehyde (37%) was added to each well and the cells were fixed for 10 min. The liquid was gently decanted from the plate and each well was examined under a microscope. Each well was photographed and observed cells are scored on a scale of 1-5. […] A 1 indicates cells are non-hyphal with only “yeast-like” cells and budding cells.
Scores of 2, 3, and 4 indicate shorter length or reduced quantity of hyphae when compared with WT (2 being very near non-hyphal and 4 being close to WT).

In the case of `Cc1cc(NS(=O)(=O)c2ccc(C(C)(C)C)cc2)no1`, the IC50 in [1] was 1200 nM; in [2], above 20000 nM. Further, the “C. albicans Phenotype Rating” value in the data set on C. albicans (MC303) is given as 5. The “AFDD Mammalian Cytotoxicity LD50” value in data set [3] was above 1000 µM. Besides, the “C. albicans Overnight Growth Inhibition” value in the data set with C. albicans [4] is listed as −107.0%.
Regarding `O=c1cc[nH]c(=S)[nH]1` [Compound 2-thiouracil, 2-thiouracil], in data set [5], the “expected LD50 of control drug” value was above 1000 µM.
As for `Cc1cc(NS(=O)(=O)c2ccc(-c3ccc(F)cc3F)cc2)no1` [Compound III], the “kidney histology score (severity of fungal invasion)” value with C. albicans [6] is recorded as “decreases severity of fungal invasion relative to the control”.
For the compound `CCCNc1ccc(S(=O)(=O)Nc2cc(C)on2)cc1` [Compound II], the “number of lesions on kidneys” value in the data set with C. albicans [7] was “decreases the number of lesion relative to the control”.
In turn, `Cc1cc(NS(=O)(=O)c2ccc(-c3cc(F)cc(F)c3)cc2)no1` [Example 1, N-(5-methyl-3-isoxazolyl)-4′-(3,5-difluorophenyl)benzensulfonamide] came in with a melting point of 175 °C.
On the same count and under the same terms, then `CCCCc1ccc(S(=O)(=O)Nc2cc(C)on2)s1` [Example 2, 5-Butyl-N-(5-methylisoxazol-3yl)thiophene-2-sulfonamide], with 96.5 to 100.7 °C.

One may read the IC50 as the concentration at which inhibition is half-maximal. Broadly, the melting point is the temperature, or range, at which the solid turns liquid.
